Laboratory results: the supplement of paper PMC10307832

Legend:
Assay in all cases: relative viability (nuclei count vs DMSO), 5 days (fraction); higher = more cells survive
TPCA-1 + Alpelisib = compound: C1=CC(=CC=C1C2=CC(=C(S2)NC(=O)N)C(=O)N)F [TPCA-1] + Cc1nc(NC(=O)N2CCC[C@H]2C(N)=O)sc1-c1ccnc(C(C)(C)C(F)(F)F)c1 [Alpelisib] (partner 2 µM)
Method in brief: (§1)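 Lung cancer cell lines in 1536-well plates got either a single drug or a fixed anchor-drug dose together with five library-drug doses (not always all listed) in √10 steps, by pin tool, on the day after seeding. Nuclei were counted after 5 days, and relative viability is the treated-to-vehicle ratio of nuclei counts. Values are medians of duplicate plates.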

TPCA-1 + Decitabine = compound: C1=CC(=CC=C1C2=CC(=C(S2)NC(=O)N)C(=O)N)F [TPCA-1] + Nc1ncn([C@H]2C[C@H](O)[C@@H](CO)O2)c(=O)n1 [Decitabine] (partner 2 µM)
Method in brief: as §1

[1] = compound: C[C@]12O[C@H](C[C@]1(O)CO)n1c3ccccc3c3c4c(c5c6ccccc6n2c5c31)CNC4=O [Lestaurtinib] + CC(=O)c1c(C)c2cnc(Nc3ccc(N4CCNCC4)cn3)nc2n(C2CCCC2)c1=O [Palbociclib] (partner 0.5 µM)
Method in brief: as §1

[2] = compound: C[C@]12O[C@H](C[C@]1(O)CO)n1c3ccccc3c3c4c(c5c6ccccc6n2c5c31)CNC4=O [Lestaurtinib] + O=C(CCCCCCC(=O)Nc1ccccc1)NO [Vorinostat] (partner 1 µM)
Method in brief: as §1

Cell Line | relative viability (TPCA-1 + Alpelisib; first compound 0.04 µM) | relative viability (TPCA-1 + Alpelisib; first compound 0.1265 µM) | relative viability (TPCA-1 + Alpelisib; first compound 0.4 µM) | relative viability (TPCA-1 + Alpelisib; first compound 1.265 µM) | relative viability (TPCA-1 + Alpelisib; first compound 4 µM) | relative viability (TPCA-1 + Decitabine; first compound 0.04 µM) | relative viability (TPCA-1 + Decitabine; first compound 0.1265 µM) | relative viability (TPCA-1 + Decitabine; first compound 0.4 µM) | relative viability (TPCA-1 + Decitabine; first compound 1.265 µM) | relative viability (TPCA-1 + Decitabine; first compound 4 µM) | relative viability ([1]; first compound 0.005 µM) | relative viability ([1]; first compound 0.01581 µM) | relative viability ([1]; first compound 0.05 µM) | relative viability ([1]; first compound 0.1581 µM) | relative viability ([1]; first compound 0.5 µM) | relative viability ([2]; first compound 0.005 µM) | relative viability ([2]; first compound 0.01581 µM) | relative viability ([2]; first compound 0.05 µM) | relative viability ([2]; first compound 0.1581 µM) | relative viability ([2]; first compound 0.5 µM)
ABC-1 | 1.38 | 0.98 | 0.847 | 0.967 | 0.591 | 1.49 | 1.07 | 1.16 | 1.09 | 1.27 | 0.618 | 0.625 | 0.647 | 0.619 | 0.42 | 1.02 | 1.2 | 1.03 | 0.887 | 0.329
LK-2 | 1.23 | 0.758 | 0.946 | 0.692 | 0.627 | 0.347 | 0.21 | 0.331 | 0.27 | 0.175 | 0.705 | 0.833 | 0.756 | 0.53 | 0.307 | 0.237 | 0.353 | 0.198 | 0.193 | 0.154
NCI-H2023 | 0.598 | 0.522 | 0.634 | 0.489 | 0.417 | 0.256 | 0.195 | 0.228 | 0.227 | 0.182 | 0.402 | 0.316 | 0.384 | 0.261 | 0.121 | 0.639 | 0.445 | 0.577 | 0.371 | 0.117
SK-MES-1 | 0.935 | 0.704 | 0.996 | 0.691 | 0.586 | 0.39 | 0.348 | 0.37 | 0.342 | 0.321 | 0.329 | 0.324 | 0.266 | 0.337 | 0.228 | 1.18 | 1.05 | 0.487 | 0.411 | 0.215
NCI-H1793 | 0.724 | 0.646 | 0.735 | 0.828 | 0.566 | 0.495 | 0.429 | 0.492 | 0.451 | 0.384 | 0.333 | 0.36 | 0.324 | 0.335 | 0.26 | 0.531 | 0.884 | 0.561 | 0.524 | 0.252
NCI-H2405 | 1.06 | 0.599 | 0.805 |  | 0.605 | 0.823 | 0.664 | 0.748 | 0.712 | 0.717 | 0.518 | 0.546 | 0.492 | 0.515 | 0.275 | 1.03 | 1.29 | 0.88 | 0.938 | 0.253
LCLC-103H | 1.06 | 0.901 | 0.992 | 1 | 1.03 | 0.716 | 0.719 | 0.772 | 0.788 | 0.811 | 0.524 | 0.506 | 0.497 | 0.474 | 0.51 | 0.783 | 0.83 | 0.646 | 0.5 | 0.395
NCI-H460 | 0.638 | 0.464 | 0.518 | 0.373 | 0.105 | 0.521 | 0.461 |  | 0.453 | 0.476 | 0.151 | 0.231 | 0.112 | 0.116 | 0.116 | 1 | 1.01 | 0.653 | 1.1 | 0.503
NCI-H1755 | 0.937 | 0.88 | 0.893 | 0.806 | 0.526 | 0.649 | 0.709 | 0.709 | 0.688 | 0.67 | 0.446 | 0.427 | 0.464 | 0.376 | 0.382 | 0.654 | 0.74 | 0.674 | 0.397 | 0.356
NCI-H358 | 1 | 0.65 | 0.911 | 0.55 | 0.364 | 0.224 | 0.215 | 0.217 | 0.214 | 0.153 | 0.132 | 0.131 | 0.14 | 0.111 | 0.108 | 0.691 | 0.539 | 0.382 | 0.145 | 0.117
NCI-H1734 | 0.726 | 0.571 | 0.767 | 0.69 | 0.686 | 0.58 | 0.468 | 0.531 | 0.517 | 0.454 | 0.352 | 0.255 | 0.338 | 0.331 | 0.197 | 0.872 | 0.824 | 0.525 | 0.258 | 0.212
EPLC-272H | 1.09 | 0.793 | 1.06 | 0.851 | 0.863 | 0.458 | 0.318 | 0.41 | 0.372 | 0.382 | 0.359 | 0.317 | 0.269 | 0.3 | 0.353 | 0.394 | 0.463 | 0.496 | 0.276 | 0.0829
NCI-H2126 | 0.759 | 0.673 | 0.753 | 0.786 | 0.596 | 0.582 | 0.577 | 0.632 | 0.614 | 0.514 | 0.339 | 0.372 | 0.388 | 0.357 | 0.339 | 0.805 | 0.886 | 0.693 | 0.599 | 0.465
